The data set in a line: photoluminescence quantum yield (fraction); solvent given as SMILES.

SMILES strings stand for the structures.

In turn, `CCCCC(CC)Cn1c2cc(C#N)ccc2c2cc(-c3ccc(N(c4ccccc4)c4ccccc4)cc3)c(C#N)cc21` (stereo not given) displayed a photoluminescence quantum yield (in ClCCl) of 0.31.

In turn, `Nc1ccc2c(c1)C(=O)N(C13C[C@H]4C[C@@H](C1)C[C@@H](C3)C4)C2=O` showed a photoluminescence quantum yield (in C1CCCCC1) of 0.38; a photoluminescence quantum yield (in C1CCOC1) of 0.59; a photoluminescence quantum yield (in CC#N) of 0.62; a photoluminescence quantum yield (in CCOC(C)=O) of 0.58; a photoluminescence quantum yield (in CO) of 0.17; a photoluminescence quantum yield (in CS(C)=O) of 0.8. The photoluminescence quantum yield reads like this: (in Cc1ccccc1) 0.8; (in ClCCl) 0.85.

For `CCCCCOc1cc2oc(=O)c3c4ccc(N(c5ccc(C)cc5)c5ccc(C)cc5)cc4c4ccc5cccc6c(c1)c2c3c4c56`, for the setting “in C1CCOC1”, the photoluminescence quantum yield was determined as 0.53.

In turn, `CCNc1ccc2c(C(F)(F)F)cc(=O)oc2c1` had a photoluminescence quantum yield (in C1CCC2CCCCC2C1) of 0.72; a photoluminescence quantum yield (in C1CCCCC1) of 0.74; a photoluminescence quantum yield (in CC1CCCCC1) of 0.77; a photoluminescence quantum yield (in CC#N) of 0.56; a photoluminescence quantum yield (in CC(C)=O) of 0.53; a photoluminescence quantum yield (in CC(C)O) of 0.54. Further, the photoluminescence quantum yield runs as follows: (in CCC(C)CC) 0.75; (in CCCC(C)C) 0.77; (in CCCCCC) 0.76; (in CCCCCCO) 0.54; (in CCCCO) 0.53; (in CCO) 0.47. Moreover, the photoluminescence quantum yield was 0.61 (in CCOC(C)=O) and 0.46 (in CO).

Turning to `CC(C)[Si](C#Cc1c2cc3ccccc3cc2c(C#C[Si](C(C)C)(C(C)C)C(C)C)c2nc3c(nc12)C1c2ccccc2C3c2ccccc21)(C(C)C)C(C)C`, for the setting “in CCCCCC”, the photoluminescence quantum yield came out at 0.54.

As to `C(/C=C/c1cc2c3c(c1)CCCN3CCC2)=C\c1ccncc1`, the photoluminescence quantum yield reads like this: (in C1COCCO1) 0.031; (in CC#N) 0.034; (in CCCCCCC) 0.033; (in CO) 0.016.

In turn, `O=c1oc2ccccc2cc1C#Cc1ccccc1` showed a photoluminescence quantum yield (in CC#N) of 0.88.

On to `CC1=CC(=[N+]2CCC2)C=C2C1=Nc1c(C)cc(N3CCC3)cc1[Si]2(C)C`, for which the photoluminescence quantum yield stood at 0.11 (in C1COCCO1), 0.11 (in CCO), 0.009 (in O) and 0.13 (in OCCO).

`CN(C)c1ccc(C(=Cc2ccc(C=O)cc2)c2ccc(N(C)C)cc2)cc1` registered a photoluminescence quantum yield (in C1CCOC1) of 0.059.

In the case of `CCOC(=O)CSc1nc2c(c(C#N)c1C#N)CCCCCC2`, the photoluminescence quantum yield (in c1ccccc1) was 0.039.

Turning to `c1ccc(-c2c3ccccc3c(-c3cncnc3)c3ccccc23)cc1`, the photoluminescence quantum yield is 0.4 (in CCO) and 0.51 (in ClCCl).

Where the note is “in ClCCl”, `C(=C\c1nc2c(c(N3CCOCC3)n1)CCCC2)/c1ccccc1` returned a photoluminescence quantum yield of 0.023.

Consider `COc1ccc(-c2nc(-c3ccc(OC)cc3C)nc(-c3ccc(N4c5ccccc5C5(c6ccccc6-c6ccccc65)c5ccccc54)cc3C)n2)c(C)c1`, for which the photoluminescence quantum yield (in O=P(c1ccccc1)(c1ccccc1)c1ccccc1Oc1ccccc1P(=O)(c1ccccc1)c1ccccc1) stood at 0.51.

Turning to `N#Cc1coc2ccccc2c1=O`, the photoluminescence quantum yield worked out at 0.035 (in C1CCOC1); 0.0009 (in C1COCCO1); 0.0005 (in CC#N); 0.001 (in CC(C)O); 0.003 (in CCCCO); 0.001 (in CCCO). Moreover, the photoluminescence quantum yield (in CCOC(C)=O) is 0.002; the photoluminescence quantum yield (in CN(C)C=O) was 0.001; the photoluminescence quantum yield (in CO) was 0.003; the photoluminescence quantum yield (in CS(C)=O) was found to be 0.003; the photoluminescence quantum yield (in ClC(Cl)Cl) stood at 0.002; the photoluminescence quantum yield (in O) is 0.001.

For the compound `CN(c1ccccc1)c1ccc(-c2ccc(-c3ccc(N(C)c4ccccc4)cc3)c3nc(-c4ccccc4)c(-c4ccccc4)nc23)cc1`, for the setting “in ClC(Cl)Cl”, the photoluminescence quantum yield came out at 0.01.

The compound `O=c1oc2ccccc2c(O)c1C(CC(O)c1ccc(-c2ccc(Br)cc2)cc1)c1ccccc1` (stereo not given) came in with a photoluminescence quantum yield (in CC#N) of 0.06, a photoluminescence quantum yield (in CCO) of 0.058, a photoluminescence quantum yield (in CO) of 0.034 and a photoluminescence quantum yield (in O) of 0.017.

With `CCCCCCCCCCCn1cccc1C1=[N+]2C(=Cc3c(C)cc(C)n3[B-]2(F)F)c2ccccc21`, the photoluminescence quantum yield (in C1CCOC1) stood at 0.98; the photoluminescence quantum yield (in CC#N) turned out to be 0.99; the photoluminescence quantum yield (in CCCCCC) came to 0.99; the photoluminescence quantum yield (in CO) is 0.96; the photoluminescence quantum yield (in Cc1ccccc1) is 0.99; the photoluminescence quantum yield (in ClCCl) was found to be 0.99.

In turn, `Cc1ccc(-c2ccccc2)cc1` registered a photoluminescence quantum yield (in C1CCCCC1) of 0.23.

Under “in C1CCOC1”, `c1ccc(/C(=C(\c2ccccc2)c2ccccc2-c2ccc(-c3ccccc3)cc2)c2ccccc2-c2ccc(-c3ccccc3)cc2)cc1` showed a photoluminescence quantum yield of 0.32.

Regarding `N#CC(C#N)=Cc1ccc(-c2ccc(O)c(-c3nc4ccccc4s3)c2)s1`, the photoluminescence quantum yield by setting is: (in CCO) 0.0198; (in ClCCl) 0.016.

As for `Clc1ccc(N2c3sc4ccccc4c3Sc3c2sc2ccccc32)cc1`, the photoluminescence quantum yield (in ClCCl) worked out at 0.18.

On to `CCCCCN(c1ccccc1)c1ccc2c(c1)C(CC)(CC)c1cc(/C=C/c3ccc(/C=C(\C#N)C(=O)O)s3)ccc1-2`, for which the photoluminescence quantum yield reads like this: (in C1CCOC1) 0.405; (in C1COCCO1) 0.969; (in CC#N) 0.025; (in CC(C)=O) 0.223; (in CCOC(C)=O) 0.801; (in CN(C)C=O) 0.651. The photoluminescence quantum yield is, setting by setting: (in CS(C)=O) 0.622; (in ClCCl) 0.005.

Compound `CC1=CC(C)=[N+]2C1=Cc1c3ccccc3c(C#Cc3cccs3)n1[B-]2(F)F` yielded a photoluminescence quantum yield (in CCCCCC) of 0.69; a photoluminescence quantum yield (in CCCCCCCCO) of 0.45; a photoluminescence quantum yield (in CCOC(C)=O) of 0.55; a photoluminescence quantum yield (in CN(C)C=O) of 0.4; a photoluminescence quantum yield (in ClCCl) of 0.44.

`C#CCn1c2ccccc2c2cc(/C=C/c3cc(C)c4n3[B-](F)(F)[N+]3=C(C)C=C(C)C3=C4c3ccc(I)cc3)ccc21`: the photoluminescence quantum yield (in CC#N) was determined as 0.77, the photoluminescence quantum yield (in CS(C)=O) amounted to 0.72 and the photoluminescence quantum yield (in ClC(Cl)Cl) came to 0.66.

As for `CCOC(=O)/C(C)=C/C1=C(c2ccc(C)cc2)C2=Nc3c(-c4ccc(C)cc4)c(Br)c(-c4ccc(C)cc4)n3[B-](F)(F)[N+]2=C1c1ccc(C)cc1`, the photoluminescence quantum yield (in ClC(Cl)Cl) came out at 0.03.

With `O=S1(=O)c2ccccc2C2(c3cc(-c4ccc(N(c5ccccc5)c5ccccc5)cc4)ccc3-c3ccc(-c4ccc(N(c5ccccc5)c5ccccc5)cc4)cc32)c2ccccc21`, the photoluminescence quantum yield came to 0.83 (in ClCCl) and 0.9 (in c1cc(-n2c3ccccc3c3ccccc32)cc(-n2c3ccccc3c3ccccc32)c1).

As for `CCCCCCCCCCOc1ccc(C#Cc2ccc(C#Cc3ccc(OCCCCCCCCCC)c(OCCCCCCCCCC)c3)c3nc4c5ccccc5c5ccccc5c4nc23)cc1OCCCCCCCCCC`, the photoluminescence quantum yield was 0.23 (in C1CCOC1), 0.24 (in Cc1ccccc1) and 0.22 (in ClCCl).

Consider `COc1cc(/C=C/c2ccncc2)c(OC)cc1C=O`, for which the photoluminescence quantum yield turned out to be 0.11 (in C1CCOC1); 0.17 (in CC#N); 0.15 (in CN(C)C=O); 0.09 (in Cc1ccccc1); 0.26 (in ClCCl).

The values are drawn from the Deep4Chem optical property database.
